Assay results as given in patent EP4653001A1, “TREATMENT, DIAGNOSIS AND/OR PROGNOSIS OF MITOCHONDRIAL DISEASES” (Universidad Autónoma de Madrid, priority 2024, dated 2025).

Legend:
Assay type in all cases: cell-based
[1] = test system: mouse cortical neurons; assay: NADPH/NADP+ levels in neurons (NADP/NADPH-Glo); details: CI-inhibited neurons
Protocol: (§1) Primary cultures of C57BL/6 mouse cortical neurons were prepared from embryos between embryonic days 16.5 and 17.5 and seeded onto pre-treated plates coated with Poly-L-lysine hydrobromide (500 µg/ml). We used Neurobasal medium without D-glucose and sodium pyruvate (ThermoFisher) to modulate D-glucose levels, depending on the experiment (2.5 mM, 5 mM, or 25 mM).
(§2) In standard experiments, we utilized Neurobasal medium with 25 mM D-glucose, 1 mM sodium pyruvate (ThermoFisher), B27 plus supplement (GIBCO), GlutaMax I 100X (GIBCO), and 1% penicillin/streptomycin (P/S). Starting from day 6 in vitro (DIV6), half of the medium was replaced every 3-4 days, omitting GlutaMax I.
The NADP/NADP-Glo™ Assay (Promega) was employed to assess the NADP/NADPH ratio in cultured cells, following the manufacturer's instructions (Technical Bulletin Number TM400). This bioluminescent assay can detect both total oxidized and reduced nicotinamide adenine dinucleotide phosphates (NADP+ and NADPH) and determine their ratio.
Cells were cultured in 24-well plates (Falcon®) at varying concentrations depending on the cell type and the specific experiment. After removing the media, we added 100 µl of PBS 1X per well and lysed the cells by introducing 100 µl of a base solution with 1% DTAB (1:1 ratio). […] Luminescence was measured using the CLARIOstar Plus plate reader from BMG LABTECH.

[2] = test system: mouse cortical neurons; assay: L-lactate release in neurons (Lactate-Glo)
Protocol: as §1
L-lactate levels were measured in mouse cortical neurons using Lactate-Glo™ Assay (Promega, #J5021) following the original protocol.
(§3) Increased lactate secretion is considered a good indicator of enhanced glycolytic rates, which is a common feature of ETC-inhibited cells as they switch from OXPHOS to glycolysis to maintain ATP levels. […] We culture 143B cells in the presence of Piericidin for 24 h and PPP activity and lactate release, as a proxy of glycolysis, were measured. As expected, lactate detection in the media was higher in CI-inhibited cells. […] Next, we wonder if in this context, glucose can be overused by glycolysis and therefore diverted away from the PPP. Diseases associated with impaired mitochondrial function negatively impact high energy demanding tissues such as the brain. As such, neurons that are highly sensitive to ETC inhibition also rely strongly on glucose metabolism. Thus, we used mouse cortical neurons to determine the rates of glycolysis and PPP as glucose levels become limiting. Control and Piericidin treated neurons where cultured in media containing supraphysiological (25 mM), physiological (5 mM) or subphysiological concentrations of glucose (2,5 mM). […] Decreased PPP activity under low glucose (2,5 mM) correlated with a rapid decline in NADPH/NADP+ levels in CI-inhibited cells. Conversely, glucose availability had no effect on ATP levels at this timepoint.

[3] = test system: mouse cortical neurons; assay: ATP measurement in neurons (ATP Assay Kit); details: CI-inhibited neurons, 100 nM, 24 h
Protocol: as §1, §2
ATP Assay Kit (Abcam, #ab83355) was used to analyze ATP levels. Briefly, Cells were seeded in M24 plates (neurons at 500,000 cells/mL and monolayer density for astrocytes), and for the ATP experiments, three wells per condition were combined. An alternative deproteinization protocol was applied to purify the samples, and a Colorimetric Assay was conducted as outlined in the original protocol. The measurements were obtained using the CLARIOstar Plus plate reader from BMG LABTECH.

[4] = test system: 143B cells; assay: Lactate release in 143B cells (proxy of glycolysis); details: 24 h
Protocol: as §3

[5] = test system: 143B cells; assay: Time-course cell proliferation / survival of 143B cells; details: 143B cells, over the course of 96 h; Piericidin 100 nM, G6PDi 50 uM; combination effect beyond 48 h
Protocol: All cell lines, 143b, HeLa, U2OS, and transmitochondrial cybrids carrying mutation in CI (ND2), CIII (CytB) or CIV (Cox2) subunits, were maintained in DMEM high glucose (HyClone), 10% FBS and 1% P/S at 37°C with 5% CO2. Mitochondrial mutant cells were cultured with supplementation of 50 µg/mL uridine. The selected cancer cell lines with different levels of malic enzyme (HCC15, KYSE410, CAKI1, J82, MDAMB453, Colo320, NCIH1703) were obtained from the DSMZ-German Collection of Microorganisms and Cell Cultures GmbH and cultured in the same DMEM 10% FBS medium. OCI-Lys3 and RCH-ACV cell lines (cells in suspension), were obtained from the same repository and cultured in RPMI 10% FBS medium. Transfections for gain- and loss-of-function studies were performed according to the manufacturer's instructions using the polyfect reagent (Qiagen, 301107). […] Subsequently, cells were trypsinized and quantified using a hemocytometer (NanoEnTek, DHC-N01). Cell viability was quantified using propidium iodide (PI; 50 µg/ml) staining.
Next, we conducted time-course experiments to gain further knowledge on the metabolic determinants underlying the observed synthetic lethality between PPP and OXPHOS. 143B cells were treated either with Piericidin or G6PDi (selective inhibitor of G6PD) alone or the combination of both and cell proliferation was quantified over the course of 96 h. […]

For `CC=C(C)C(O)C(C)C=C(C)C=CCC(C)=CCc1nc(OC)c(OC)c(O)c1C` (centres unmarked) [Piericidin, Piericidin A], the NADPH levels ([1]; 100 nM, 24 h) was “marked drop”, the “NADPH/NADP+ levels” value ([1]; low glucose (2,5 mM)) was “rapid decline” and the lactate secretion ([2]; 5 mM glucose, trend, did not reach statistical significance) was “increased lactated secretion”. The levels of lactate ([2]; limited glucose availability (2,5 mM), 100 nM, 16 h) was “preserving”, the lactate ([2]; neurons cultured in 25 mM glucose, 100 nM, 16 h) was “significantly upregulation” and the ATP levels [3] was “maintained”. The “lactate detection in the media” value [4] was “higher” and the “cellular fitness / cell survival” value [5] was “did not cause a substantial decline”.
